Test results from patent US20240025906A1 (NEURON23, INC., priority 2022, published 2024).
Where two headings read alike, the source gives them in different places.

Legend:
[1] = test system: JAK1/TYK2 pSTAT5 (Tyr694/699) in THP-1 cell line; test: IFNa-stimulated JAK1/TYK2 pSTAT5 (Tyr694/699) inhibition cellular assay, AlphaLISA; type: cell-based; details: Homo sapiens, THP-1 cells, AlphaLISA (Assay B)
Procedure, shortened: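 THP-1 cells (2e4/well in HBSS) were preincubated with compound (8 points, 6-fold steps from 10000 nM final) for 1 h at 37 °C, then stimulated with IFNa (added at 100 ng/mL) for 30 min. Lysate pSTAT5 was read by AlphaLISA at 615 nm. IC50 came from a 4-parameter fit with bottom 0 and Hill −1.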

[2] = biological target: T1, TYK2 JH2 (Homo sapiens, UniProt P29597); test: TYK2 JH2 binding assay (KINOMEscan KdELECT competitive binding); details: TYK2 JH2 domain
T1 construct: purchased DiscoverX (KINOMEscan KdELECT service); host or cells: E. coli BL21-derived (T7 phage display) or HEK-293
T1 sequence (P29597 589-875 limits assumed): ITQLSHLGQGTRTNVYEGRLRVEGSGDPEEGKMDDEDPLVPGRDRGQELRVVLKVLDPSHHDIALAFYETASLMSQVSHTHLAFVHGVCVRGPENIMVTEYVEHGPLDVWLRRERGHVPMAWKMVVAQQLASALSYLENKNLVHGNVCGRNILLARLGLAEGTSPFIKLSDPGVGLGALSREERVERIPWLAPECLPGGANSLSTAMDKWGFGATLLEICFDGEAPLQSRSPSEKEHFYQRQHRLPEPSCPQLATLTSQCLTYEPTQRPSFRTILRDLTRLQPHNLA
Procedure, shortened: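 Kd values come from qPCR measurement of kinase retained on an immobilized-ligand resin after 1 h room-temperature competition with compound in an 11-point, 3-fold series.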

[3] = IFNa-stimulated, read-out: Cellular_THP1_IFNa-pSTATS_TYK2
[4] = KINOMEscan KdELECT (Assay A), read-out: Biochemical TYK2_DiscoverX_JH2_BND_Kd
[5] = DiscoverX KINOMEscan KdELECT (Assay A), read-out: Biochemical TYK2_DiscoverX_JH2_BND_Kd
[6] = IFNa-stimulated, read-out: Cellular THP1_IFNa-pSTATS_IC50
[7] = KINOMEscan KdELECT (Assay A), read-out: Biochemical TYK2_JH2_Kd
[8] = IFNa-stimulated pSTAT5 (Tyr694/699), read-out: Cellular_THP1_IFNa-pSTATS_TYK2

| IC50 [1, 3] | Kd [2, 4] | Kd [2, 5] | Compound | further results |
| --- | --- | --- | --- | --- |
| ≤ 500 nM | ≤ 100 nM | – | CNc1ncc(-c2ccc(Oc3cccnc3)cc2)c2cc(NC(=O)C3CC3)ncc12 [Example 864, N-(8-(methylamino)-5-(4-(pyridin-3-yloxy)phenyl)-2,7-naphthyridin-3-yl)cyclopropanecarboxamide] | – |
| ≤ 500 nM | ≤ 100 nM | – | CNc1ncc(C#Cc2ccc(S(=O)(=O)NC)cc2)c2cc(NC(=O)C3CC3)ncc12 [Example 673, N-(8-(methylamino)-5-((4-(N-methylsulfamoyl)phenyl)ethynyl)-2,7-naphthyridin-3-yl)cyclopropanecarboxamide] | – |
| ≤ 500 nM | ≤ 100 nM | – | CNc1ncc(C#Cc2ccc3nc(C)n(C)c3c2)c2cc(NC(=O)C3CC3)ncc12 [Example 647, N-(5-((1,2-dimethyl-1H-benzo[d]imidazol-6-yl)ethynyl)-8-(methylamino)-2,7-naphthyridin-3-yl)cyclopropanecarboxamide] | – |
| ≤ 500 nM | – | ≤ 100 nM | CNc1ncc(-c2nc3cc(/C(C)=N/OC)ccc3o2)c2cc(NC(=O)C3CC3)ncc12 [Example 463, (E)-N-(5-(5-(1-(methoxyimino)ethyl)benzo[d]oxazol-2-yl)-8-(methylamino)-2,7-naphthyridin-3-yl)cyclopropanecarboxamide] | – |
| ≤ 500 nM | – | ≤ 100 nM | CNc1ncc(-c2nc3ccc(C)cn3n2)c2cc(NC(=O)C3CCC3)ncc12 [Example 561, N-(5-(6-methyl-[1,2,4]triazolo[1,5-a]pyridin-2-yl)-8-(methylamino)-2,7-naphthyridin-3-yl)cyclobutanecarboxamide] | – |
| ≤ 500 nM | – | ≤ 100 nM | CNc1ncc(-c2nc3cc(OC(F)F)ccc3o2)c2cc(NC(=O)C3CC3)ncc12 [Example 225, N-(5-(5-(difluoromethoxy)benzo[d]oxazol-2-yl)-8-(methylamino)-2,7-naphthyridin-3-yl)cyclopropanecarboxamide] | – |
| ≤ 500 nM | – | ≤ 100 nM | CNc1ncc(-c2nc3cc(OC)ccc3o2)c2cc(Nc3ccc(OC)cn3)ncc12 [Example 378, 4-(5-methoxybenzo[d]oxazol-2-yl)-N^6-(5-methoxypyridin-2-yl)-N^1-methyl-2,7-naphthyridine-1,6-diamine] | – |
| ≤ 500 nM | – | ≤ 100 nM | CNc1ncc(-c2nc3cc(OCC(C)(C)C#N)ccc3o2)c2cc(NC(=O)C3CC3)ncc12 [Example 236, N-(5-(5-(2-cyano-2-methylpropoxy)benzo[d]oxazol-2-yl)-8-(methylamino)-2,7-naphthyridin-3-yl)cyclopropanecarboxamide] | – |
| ≤ 500 nM | – | ≤ 100 nM | CNc1ncc(-c2nc3cc(OC[C@H](C)O)ccc3o2)c2cc(NC(=O)C3CC3)ncc12 [Example 240, (S)—N-(5-(5-(2-hydroxypropoxy)benzo[d]oxazol-2-yl)-8-(methylamino)-2,7-naphthyridin-3-yl)cyclopropanecarboxamide] | – |
| ≤ 500 nM | ≤ 100 nM | – | CNc1ncc(C#Cc2cc3ccccn3n2)c2cc(NC(=O)[C@@H]3C[C@@H]3C(F)F)ncc12 (single isomer, unassigned) [Example 754] | – |
| ≤ 500 nM | ≤ 100 nM | – | CNc1ncc(C#Cc2ccc3ncn(C)c3c2)c2cc(NC(=O)C3CC3)ncc12 [Example 616, N-(5-((1-methyl-1H-benzo[d]imidazol-6-yl)ethynyl)-8-(methylamino)-2,7-naphthyridin-3-yl)cyclopropanecarboxamide] | – |
| – | – | – | CNc1ncc(-c2ccccc2S(C)(=O)=O)c2cc(NC(=O)C3CC3)ncc12 [Example 48, N-(8-(methylamino)-5-(2-(methylsulfonyl)phenyl)-2,7-naphthyridin-3-yl)cyclopropanecarboxamide] | IC50 [1, 6]: > 500 nM; Kd [2, 7]: 1000 to 10000 nM |
| ≤ 500 nM | ≤ 100 nM | – | CNc1ncc(C#Cc2ccc(O)c(C#N)c2)c2cc(NC(=O)C3CC3)ncc12 [Example 608, N-(5-((3-cyano-4-hydroxyphenyl)ethynyl)-8-(methylamino)-2,7-naphthyridin-3-yl)cyclopropanecarboxamide] | – |
| – | – | – | CNc1ncc(-c2ccc(-n3cccn3)cc2)c2cc(NC(=O)C3CC3)ncc12 [Example 166, N-(5-(4-(1H-pyrazol-1-yl)phenyl)-8-(methylamino)-2,7-naphthyridin-3-yl)cyclopropanecarboxamide] | IC50 [1, 6]: > 500 nM; Kd [2, 7]: ≤ 100 nM |
| ≤ 500 nM | ≤ 100 nM | – | [2H]C([2H])([2H])Nc1ncc(C#Cc2ccc3nc(C(F)F)n(C)c3c2)c2cc(NC(=O)[C@H]3C[C@H]3C)ncc12 [Example 819, (1S,2R)—N-(5-((2-(difluoromethyl)-1-methyl-1H-benzo[d]imidazol-6-yl)ethynyl)-8-((methyl-d3)amino)-2,7-naphthyridin-3-yl)-2-methylcyclopropane-1-carboxamide] | – |
| ≤ 500 nM | – | ≤ 100 nM | CNc1ncc(-c2nc3cc(N4CCOCC4)ccc3o2)c2cc(NC(=O)[C@H]3CC3(F)F)ncc12 [Example 422, (R)-2,2-difluoro-N-(8-(methylamino)-5-(5-morpholinobenzo[d]oxazol-2-y1)-2,7-naphthyridin-3-yl)cyclopropane-1-carboxamide] | – |
| ≤ 500 nM | ≤ 100 nM | – | CNc1ncc(-c2nc3ccc(OC)cc3s2)c2cc(NC(=O)C3CC3)ncc12 [Example 933, N-(5-(6-methoxybenzo[d]thiazol-2-yl)-8-(methylamino)-2,7-naphthyridin-3-yl)cyclopropanecarboxamide] | – |
| ≤ 500 nM | ≤ 100 nM | – | CNc1ncc(C#Cc2ccc3cc(COC)n(C)c3c2)c2cc(NC(=O)C3CC3)ncc12 [Example 716, N-(5-((2-(methoxymethyl)-1-methyl-1H-indol-6-yl)ethynyl)-8-(methylamino)-2,7-naphthyridin-3-yl)cyclopropanecarboxamide] | – |
| ≤ 500 nM | – | ≤ 100 nM | CNc1ncc(-c2nc3cc(OC)ccc3o2)c2cc(NC(=O)[C@@H]3C[C@H]3C)ncc12 (racemic) [Example 382, N-(5-(5-methoxybenzo[d]oxazol-2-yl)-8-(methylamino)-2,7-naphthyridin-3-y1)-2-methylcyclopropane-1~carboxamide] | – |
| – | – | – | CNc1ncc(-c2ccc(F)cc2)c2cc(NC(=O)C3CC3)ncc12 [Example 18, N-(5-(4-fluorophenyl)-8-(methylamino)-2,7-naphthyridin-3-yl)cyclopropanecarboxamide] | IC50 [1, 6]: > 500 nM; Kd [2, 7]: ≤ 100 nM |
| – | – | – | CNc1ncc(-c2ccn[nH]2)c2cc(NC(=O)C3CC3)ncc12 [Example 52, N-(8-(methylamino)-5-(1H-pyrazol-5-yl)-2,7-naphthyridin-3-yl)cyclopropanecarboxamide] | IC50 [1, 6]: > 500 nM; Kd [2, 7]: ≤ 100 nM |
| ≤ 500 nM | ≤ 100 nM | – | CNc1ncc(-c2nc3cc(N4CCO[C@@H](C(F)F)C4)ccc3o2)c2cc(NC(=O)C3CC3)ncc12 (single isomer, unassigned) [Example 936] | – |
| – | – | – | CNc1ncc(-c2cccc(-c3ncnn3C)c2)c2cc(NC(=O)C3CC3)ncc12 [Example 54, N-(5-(3-(1-methyl-1H-1,2,4-triazol-5-yl)phenyl)-8-(methylamino)-2,7-naphthyridin-3-yl)cyclopropanecarboxamide] | IC50 [1, 6]: > 500 nM; Kd [2, 7]: ≤ 100 nM |
| – | – | – | CNc1ncc(-c2ccc(C)o2)c2cc(NC(=O)C3CC3)ncc12 [Example 143, N-(8-(methylamino)-5-(5-methylfuran-2-yl)-2,7-naphthyridin-3-yl)cyclopropanecarboxamide] | IC50 [1, 6]: ≤ 500 nM; Kd [2, 7]: ≤ 100 nM |
| – | ≤ 100 nM | – | CNc1ncc(-c2nc3ccc(N4CCOCC4)cn3n2)c2cc(NC(=O)C3CC3(F)F)ncc12 (stereo not shown) [Example 1071, 2,2-difluoro-N-(8-(methylamino)-5-(6-morpholino-[1,2,4]triazolo[1,5-a]pyridin-2-yl)-2,7-naphthyridin-3-yl)cyclopropane-1-carboxamide] | IC50 [1, 8]: ≤ 500 nM |
| – | ≤ 100 nM | – | CNc1ncc(C#Cc2ccc(OC)cn2)c2cc(NC(=O)N3CC(OC)C3)ncc12 [Example 1083, 3-methoxy-N-[5-[2-(5-methoxy-2-pyridyl)ethynyl]-8-(methylamino)-2,7-naphthyridin-3-yl]azetidine-1-carboxamide] | IC50 [1, 8]: > 500 nM |
| ≤ 500 nM | – | ≤ 100 nM | CNc1ncc(-c2nc3ccc(N4CCO[C@H](C)C4)cn3n2)c2cc(NC(=O)C3CC3)ncc12 [Example 477, (R)-N-(8-(methylamino)-5-(6-(2-methylmorpholino)-[1,2,4]triazolo[1,5-a]pyridin-2-yl)-2,7-naphthyridin-3-yl)cyclopropanecarboxamide] | – |
| ≤ 500 nM | – | ≤ 100 nM | CNc1ncc(-c2nc3cc(N4CCOC(C)(C)C4)ccc3o2)c2cc(NC(=O)C3CC3)ncc12 [Example 317, N-(5-(5-(2,2-dimethylmorpholino)benzo[d]oxazol-2-yl)-8-(methylamino)-2,7-naphthyridin-3-yl)cyclopropanecarboxamide] | – |
| – | – | – | CNc1ncc(-c2csc(C)n2)c2cc(NC(=O)C3CC3)ncc12 [Example 81, N-(8-(methylamino)-5-(2-methylthiazol-4-yl)-2,7-naphthyridin-3-yl)cyclopropanecarboxamide] | IC50 [1, 6]: > 500 nM; Kd [2, 7]: ≤ 100 nM |
